Holding throughout (type): cell-based
The target in experiment [1] is T1, hNav1.1 (Homo sapiens, UniProt P35498, F1774A).
T1 construct: gene SCN1A; full-length alpha-subunit in HEK-293 cells with human beta1; with Sodium channel regulatory subunit beta-1
Put plainly: automated whole-cell voltage clamp.

Experiment [2] concerns the target T2, hNav1.3 (Homo sapiens, UniProt Q9NY46).
T2 construct: gene SCN3A; full-length alpha-subunit in HEK-293 cells with human beta1; with Sodium channel regulatory subunit beta-1
Kind of experiment: automated whole-cell voltage clamp (Qube-384).

The target of experiment [3] is T3, hNav1.6 (Homo sapiens, UniProt Q9UQD0, N1768D).
T3 construct: gene SCN8A; full-length alpha-subunit in HEK-293 cells with human beta1; with Sodium channel regulatory subunit beta-1
Kind of experiment: automated whole-cell voltage clamp.

Experiment [4] has as its target T4, hNav1.2 (Homo sapiens, UniProt Q99250).
T4 construct: gene SCN2A; full-length alpha-subunit in HEK-293 cells with human beta1; with Sodium channel regulatory subunit beta-1
Kind of experiment: manual whole-cell patch clamp. Background: In patch-clamp work, channel activity is measured electrically.

Experiment [5] addresses T5, hNav1.6 (Homo sapiens, UniProt Q9UQD0).
T5 construct: gene SCN8A; full-length alpha-subunit in HEK-293 cells with human beta1; with Sodium channel regulatory subunit beta-1
Kind of experiment: automated whole-cell voltage clamp.

Experiment [6] concerns the target T6, hNav1.1 (Homo sapiens, UniProt P35498).
T6 construct: gene SCN1A; full-length alpha-subunit in HEK-293 cells with human beta1; with Sodium channel regulatory subunit beta-1
Put plainly: automated whole-cell voltage clamp.

The target in experiment [7] is T7, hNav1.4 (Homo sapiens, UniProt P35499).
T7 construct: gene SCN4A; full-length alpha-subunit in HEK-293 cells with human beta1; with Sodium channel regulatory subunit beta-1
Put plainly: automated whole-cell voltage clamp (Qube-384).

Experiment [8] addresses T8, hNav1.5 (Homo sapiens, UniProt Q14524).
T8 construct: gene SCN5A; full-length alpha-subunit in HEK-293 cells with human beta1; with Sodium channel regulatory subunit beta-1
Put plainly: automated whole-cell voltage clamp (Qube-384).

Experiment [9] has as its target T9, mNav1.6 (Mus musculus, UniProt Q9WTU3).
T9 construct: gene Scn8a; full-length mouse alpha-subunit in HEK-293 cells with human beta1; with Sodium channel regulatory subunit beta-1 (human)
Put plainly: automated whole-cell voltage clamp (Qube-384).

The target in experiment [10] is T10, NaChBac (Halalkalibacterium halodurans, UniProt Q9KCR8).
T10 construct: gene BH1501; homotetrameric bacterial channel expressed in HEK-293 cells (construct not described)
T10 sequence (Q9KCR8 1-274): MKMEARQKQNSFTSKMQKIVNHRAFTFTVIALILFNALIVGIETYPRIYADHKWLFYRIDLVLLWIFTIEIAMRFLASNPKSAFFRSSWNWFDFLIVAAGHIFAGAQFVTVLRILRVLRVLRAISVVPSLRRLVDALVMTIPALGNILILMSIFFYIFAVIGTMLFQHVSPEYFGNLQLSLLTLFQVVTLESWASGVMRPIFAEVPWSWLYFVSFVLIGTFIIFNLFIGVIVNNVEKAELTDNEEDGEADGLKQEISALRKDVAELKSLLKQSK
Put plainly: whole-cell voltage clamp.

The term IC50 denotes the concentration at which inhibition is half-maximal. On to `C=C(C)[C@@H]1CCC(C)=C[C@H]1c1c(O)cc(CCCCC)cc1O` [cannabidiol], for which the IC50 amounted to 4800 ± 200 nM in experiment [1]; 3300 ± 100 nM in [2]; 10000 ± 700 nM in experiment [3]; 1300 ± 100 nM in experiment [4]; 3000 ± 100 nM in experiment [5]; 2500 ± 200 nM in experiment [6]. In addition, the IC50 in experiment [7] amounted to 1900 ± 100 nM; in [8] it was 3800 ± 200 nM; in experiment [9], 2400 ± 100 nM; in experiment [10], 1500 ± 200 nM.
In the case of `CCCCNc1ccc(C(=O)OCCN(C)C)cc1` [tetracaine], the concentration for half-maximal inhibition (IC50) in experiment [1] was approximately 44100 nM; in [6], 1600 ± 100 nM.

Source of the values: article PMC6204917, “Inhibitory effects of cannabidiol on voltage-dependent sodium currents” (The Journal of Biological Chemistry, 2018).
